# Assay results published in article PMC6467267 (Chemical research in toxicology, 2019).
# Read-outs that look alike come from different tables or passages of the source.
# Key:
# human IMPDH2 = human IMPDH2 (Homo sapiens, UniProt P12268); test: IMPDH steady-state kinetics and inhibition; assay type: biochemical
# TfIMPDH = TfIMPDH (Tritrichomonas foetus, UniProt P50097); test: biochemical; assay type: biochemical
# CpIMPDH = CpIMPDH (Cryptosporidium parvum, UniProt Q8T6T2); test: biochemical; assay type: biochemical
# Sequence of CpIMPDH (Q8T6T2 whole entry): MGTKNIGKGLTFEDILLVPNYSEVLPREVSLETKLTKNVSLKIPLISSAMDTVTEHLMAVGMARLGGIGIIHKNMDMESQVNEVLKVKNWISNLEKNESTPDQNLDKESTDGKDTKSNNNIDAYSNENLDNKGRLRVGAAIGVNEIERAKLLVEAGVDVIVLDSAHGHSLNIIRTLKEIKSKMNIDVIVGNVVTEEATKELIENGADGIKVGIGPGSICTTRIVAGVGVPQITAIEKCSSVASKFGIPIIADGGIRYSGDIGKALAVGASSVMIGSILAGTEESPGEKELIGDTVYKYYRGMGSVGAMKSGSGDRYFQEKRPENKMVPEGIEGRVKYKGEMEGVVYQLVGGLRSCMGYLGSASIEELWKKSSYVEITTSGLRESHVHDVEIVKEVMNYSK
# CjIMPDH [1] = target: T1, CjIMPDH (Campylobacter jejuni, UniProt Q0P9J4); test: biochemical; assay type: biochemical
# BaIMPDH [2] = target: T2, BaIMPDH (Bacillus anthracis, UniProt A0A6L8P2U9); test: biochemical; assay type: biochemical
# T2 sequence (A0A6L8P2U9 1-487): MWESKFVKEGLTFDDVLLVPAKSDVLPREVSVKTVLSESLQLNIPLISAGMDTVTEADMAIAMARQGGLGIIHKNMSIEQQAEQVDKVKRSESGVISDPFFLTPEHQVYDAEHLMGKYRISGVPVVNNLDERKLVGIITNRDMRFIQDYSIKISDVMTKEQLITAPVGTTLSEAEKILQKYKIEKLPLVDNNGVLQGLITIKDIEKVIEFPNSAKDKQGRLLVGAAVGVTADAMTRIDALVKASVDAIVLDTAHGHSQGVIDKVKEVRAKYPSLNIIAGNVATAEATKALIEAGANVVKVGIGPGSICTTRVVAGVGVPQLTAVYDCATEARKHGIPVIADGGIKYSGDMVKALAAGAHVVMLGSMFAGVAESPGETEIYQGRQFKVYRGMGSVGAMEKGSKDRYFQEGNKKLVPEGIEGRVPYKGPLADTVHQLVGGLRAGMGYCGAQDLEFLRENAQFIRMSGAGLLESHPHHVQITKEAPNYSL
# [3] = target: CjIMPDHΔS (IMPDH from C. jejuni, CBS domain V92-T195 deleted and replaced with G) (Campylobacter jejuni) (UniProt Q0P9J4); test: crystal structure
# BaIMPDH [4] = target: T2, BaIMPDH; assay type: biochemical
# BaIMPDH [5] = target: T2, BaIMPDH; assay type: binding; settings: read-out: calculated value of Ki
# BaIMPDH [6] = target: T2, BaIMPDH; assay type: biochemical; remark: listed apart in the source
# CjIMPDH [7] = target: T1, CjIMPDH; test: Product determination and stoichiometry of inhibition; assay type: biochemical
# [8] = target: partially purified rat IMPDH; settings: mixed inhibition; cited from earlier work
# [9] = read-out: Km, NAD, varying NAD+, saturating IMP, 25 °C, pH 8
# [10] = uncompetitive substrate inhibition by NAD+
# [11] = read-out: Kis, OxMP, versus IMP, competitive, NAD+ 500 μM
# Sequence of TfIMPDH (P50097 whole entry): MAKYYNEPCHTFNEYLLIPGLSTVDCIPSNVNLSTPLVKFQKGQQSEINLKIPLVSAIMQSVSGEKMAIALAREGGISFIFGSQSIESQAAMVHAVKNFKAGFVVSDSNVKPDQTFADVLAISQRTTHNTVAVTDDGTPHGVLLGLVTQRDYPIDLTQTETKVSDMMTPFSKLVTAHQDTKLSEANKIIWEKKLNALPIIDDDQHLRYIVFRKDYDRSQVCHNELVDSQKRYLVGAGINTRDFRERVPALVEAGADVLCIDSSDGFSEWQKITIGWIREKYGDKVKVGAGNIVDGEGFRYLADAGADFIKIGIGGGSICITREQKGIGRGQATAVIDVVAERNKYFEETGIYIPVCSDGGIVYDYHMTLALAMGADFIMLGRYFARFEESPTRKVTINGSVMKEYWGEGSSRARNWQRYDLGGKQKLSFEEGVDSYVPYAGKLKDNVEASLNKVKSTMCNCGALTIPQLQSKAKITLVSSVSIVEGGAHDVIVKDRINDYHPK
compound,measurement,setting,value
NC(=O)c1ccc[n+]([C@@H]2O[C@H](COP(=O)([O-])OP(=O)(O)OC[C@H]3O[C@@H](n4cnc5c(N)ncnc54)[C@H](O)[C@@H]3O)[C@@H](O)[C@H]2O)c1 [NAD],Km,human IMPDH2; [9],7 ± 1.7 µM
same,"Kii, NAD",human IMPDH2; [10],0.49 ± 0.12 mM
same,Km,TfIMPDH; [9],80 ± 3 µM
same,"Kii, NAD",TfIMPDH; [10],5.4 ± 0.3 mM
same,Km,CpIMPDH; [9],45 ± 3 µM
same,"Kii, NAD",CpIMPDH; [10],6.5 ± 0.5 mM
same,Km,CjIMPDH [1]; [9],66 ± 5 µM
same,"Kii, NAD",CjIMPDH [1]; [10],4.1 ± 0.3 mM
same,"Kii, NAD",BaIMPDH [2],8.1 ± 0.5 mM
same,Km,"BaIMPDH [2]; read-out: Km, NAD, pH 8",700 ± 40 µM
"CjIMPDHΔS (IMPDH from C. jejuni, CBS domain V92-T195 deleted and replaced with G) (from UniProt Q0P9J4) (enzyme)",stoichiometry N,[3],4
"Nc1nc2c(ncn2[C@@H]2O[C@H](COP(=O)(O)O)[C@@H](O)[C@H]2O)c(=O)[nH]1 [GMP, guanosine 5’-monophosphate, reference compound]",Ki,TfIMPDH,24 ± 2 µM
same,Ki,CpIMPDH,21 ± 1 µM
same,Ki,CjIMPDH [1],8 ± 0.9 µM
same,Ki,BaIMPDH [2],115 ± 7 µM
"Nc1nc2c(ncn2[C@@H]2O[C@H](COP(=O)(O)O)[C@@H](O)[C@H]2O)c(=O)o1 [OxMP, oxanosine monophosphate]","Kis, GMP /Kis, OxMP",human IMPDH2; ratio of Kis values,280
same,Ki,human IMPDH2; [11],130 ± 20 nM
same,"Kis, GMP /Kis, OxMP",TfIMPDH; ratio of Kis values,140
same,Ki,TfIMPDH; [11],0.17 ± 0.02 µM
same,"Kis, GMP /Kis, OxMP",CpIMPDH; ratio of Kis values,240
same,Ki,CpIMPDH; [11],0.09 ± 0.01 µM
same,"Kis, GMP /Kis, OxMP",CjIMPDH [1]; ratio of Kis values,160
same,Ki,CjIMPDH [1]; [11],0.051 ± 0.006 µM
same,"Kis, GMP /Kis, OxMP",BaIMPDH [2],340
same,Ki,"BaIMPDH [2]; read-out: Kis, OxMP",0.34 ± 0.05 µM
same,dissociation rate constant koff,BaIMPDH [4],0.0019 s⁻¹
same,Ki,BaIMPDH [5],330 nM
same,hydrolysis of OxMP to UrMP by the enzyme,BaIMPDH [6],no free UrMP was detected
same,stoichiometry of inhibition,BaIMPDH [6],1 OxMP/active site
same,hydrolysis of OxMP to UrMP by the enzyme,"CjIMPDH [7]; enzyme and OxMP in a 1:1 ratio for 4 h, LC-MS",no free UrMP was detected
same,stoichiometry of inhibition,"CjIMPDH [7]; incubated 5 min, initial rates",1 OxMP/active site
same,Ki,[8],1000 to 5000 nM
